{"source": "patent US20250129092A1", "about": "“COMPOUNDS USEFUL IN MODULATION OF AHR SIGNALLING” (JAGUAHR THERAPEUTICS PTE LTD, priority 2021, published 2025)", "data": [{"target": "T1, AhR (Homo sapiens, UniProt P35869)", "T1 sequence (P35869 11-848)": "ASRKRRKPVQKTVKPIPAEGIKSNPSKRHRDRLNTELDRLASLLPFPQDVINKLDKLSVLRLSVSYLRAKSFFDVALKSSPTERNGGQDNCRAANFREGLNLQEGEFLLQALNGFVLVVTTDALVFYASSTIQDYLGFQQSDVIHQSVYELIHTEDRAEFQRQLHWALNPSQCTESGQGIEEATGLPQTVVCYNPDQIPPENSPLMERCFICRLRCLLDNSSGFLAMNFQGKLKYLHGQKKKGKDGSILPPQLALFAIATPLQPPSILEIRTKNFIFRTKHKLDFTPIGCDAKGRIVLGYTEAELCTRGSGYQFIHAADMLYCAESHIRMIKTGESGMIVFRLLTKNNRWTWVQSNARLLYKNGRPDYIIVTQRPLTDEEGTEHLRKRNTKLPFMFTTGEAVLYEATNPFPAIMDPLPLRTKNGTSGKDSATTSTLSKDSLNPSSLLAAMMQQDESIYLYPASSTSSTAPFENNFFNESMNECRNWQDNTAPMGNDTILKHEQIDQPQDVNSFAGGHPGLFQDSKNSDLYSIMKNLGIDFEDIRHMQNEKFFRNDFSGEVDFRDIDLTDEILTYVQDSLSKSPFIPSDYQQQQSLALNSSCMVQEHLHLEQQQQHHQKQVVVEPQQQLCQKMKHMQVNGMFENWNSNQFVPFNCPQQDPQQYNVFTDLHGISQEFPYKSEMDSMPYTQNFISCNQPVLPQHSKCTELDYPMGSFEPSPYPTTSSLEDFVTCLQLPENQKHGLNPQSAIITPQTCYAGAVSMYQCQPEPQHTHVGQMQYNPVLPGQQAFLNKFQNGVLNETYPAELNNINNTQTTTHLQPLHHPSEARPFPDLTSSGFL", "experiment": "AhR antagonism in human PBMCs - inhibition of IL-22 release", "format": "cell-based", "parameters": "endogenous in cells", "details": "human PBMCs activated with CD3/CD28 agonist mixture, 72 hrs, IL-22 ELISA; average; read-out: hPBMC Inhibition of CD3/CD28 induced IL-22 release: av. pIC50 (converted)", "source_text": "In Vitro Assay 3: AhR Antagonism in Human Peripheral Blood Mononuclear Cells (PBMCs)-Inhibition of Interleukin-22 (IL-22) Release.\nPBMCs were isolated from human peripheral blood using Lymphoprep™ and diluted to 1×10^6 cells per ml in RPMI media containing […] foetal bovine serum, 1% penicillin-streptomycin and 1% non essential amino acids. PBMCs were subsequently activated with 1p1 per 100,000 cells of a CD3/CD28 agonist mixture (human T Cell TransAct™ (Miltenyi Biotec)) and then plated at 100,000 cells per well in a round bottom 96 well tissue culture plate. One hour after stimulation seven concentrations of each test compound or vehicle (final [DMSO] 0.2%) were added. The plates were then placed in an incubator at 37° C., ≥85% humidity, 5% […] for 72 hrs before the media was removed and stored at −20° C. until cytokine analysis. IL-22 was measured using human IL-22 DuoSet ELISA (R&D systems) according to the manufacturer's instructions.", "units": {"IC50": "nM"}, "values": [{"smiles": "Cc1ncc(-c2nc3c(c(NCCc4c[nH]c5ccccc45)n2)OCCN3)s1", "note": "[Example 7, N-[2-(1H-indol-3-yl)ethyl]-2-(2-methylthiazol-5-yl)-7,8-dihydro-6H-pyrimido[5,4-b][1,4]oxazin-4-amine]", "IC50": 9.55}, {"smiles": "O=c1[nH]cccc1-c1nc2c(c(NCCc3c[nH]c4cc(F)ccc34)n1)OCCN2", "note": "[Example 21, 3-[4-[2-(6-fluoro-1H-indol-3-yl)ethylamino]-7,8-dihydro-6H-pyrimido[5,4-b][1,4]oxazin-2-yl]-1H-pyridin-2-one]", "IC50": 1.45}, {"smiles": "Fc1cncc(-c2nc3c(c(N[C@@H]4CCc5[nH]c6ccccc6c5C4)n2)OCCN3)c1", "note": "[Example 4, 2-(5-fluoro-3-pyridyl)-N-[(3R)-2,3,4,9-tetrahydro-1H-carbazol-3-yl]-7,8-dihydro-6H-pyrimido[5,4-b][1,4]oxazin-4-amine]", "IC50": 83.2}, {"smiles": "Cn1cc(-c2nc3c(c(NCCc4c[nH]c5ccccc45)n2)OCCN3)nn1", "note": "[Example 55, N-[2-(1H-indol-3-yl)ethyl]-2-(1-methyltriazol-4-yl)-7,8-dihydro-6H-pyrimido[5,4-b][1,4]oxazin-4-amine]", "IC50": "> 2000"}]}, {"target": "T1, AhR", "experiment": "AhR antagonism in U937 cells (Promega P450-Glo assay)", "format": "cell-based", "parameters": "endogenous in cells; host or cells: U937 cells", "details": "CYP1A1 activity readout (Luciferin-CEE), head names VAF347, average, read-out: U937 Antagonist pIC50-VAF347: av. pIC50 (converted)", "protocol": "In Vitro Assay 1: AhR Antagonism in U937 Cells (Promega P450-Glo™ Assay)\nAhR antagonism was assessed in LJ937 cells (myeloid lineage cell line derived from a human histiocytic lymphoma). Ligand binds the AhR in the cytoplasm, and the AhR-ligand complex translocates to the nucleus and forms a heterodimer with AhR nuclear translocator (Arnt). This complex binds the xenobiotic response element (XRE) in the 5′ upstream region of the CYP1A1 promoter, enhancing CYP1A1 expression. CYP1A1 activity is subsequently determined by assessing the conversion of Luciferin-CEE to luciferin, which in turn reacts with luciferase to produce light. The amount of light produced is directly proportional to cytochrome P450 activity. U937 cells in Ultraculture serum free media (Lonza) were plated at 100,000 cells per well in a round bottom 96 well tissue culture plate. […] The plates were then placed in an incubator at 37° C., ≥85% humidity, 5% CO2 for 24 hrs. After aspiration of the supernatant the CYP1A1 substrate Luciferin-CEE ([Final] 83 μM) was added and incubated for 3 hrs before the reaction was stopped by adding luciferin detection reagent and luminescence was read after 20 minutes.", "units": {"IC50": "nM"}, "values": [{"smiles": "Cc1ncc(-c2nc3c(c(NCCc4c[nH]c5ccccc45)n2)OCCN3)s1", "note": "[Example 7, N-[2-(1H-indol-3-yl)ethyl]-2-(2-methylthiazol-5-yl)-7,8-dihydro-6H-pyrimido[5,4-b][1,4]oxazin-4-amine]", "IC50": 9.12}, {"smiles": "O=c1[nH]cccc1-c1nc2c(c(NCCc3c[nH]c4cc(F)ccc34)n1)OCCN2", "note": "[Example 21, 3-[4-[2-(6-fluoro-1H-indol-3-yl)ethylamino]-7,8-dihydro-6H-pyrimido[5,4-b][1,4]oxazin-2-yl]-1H-pyridin-2-one]", "IC50": 2.75}, {"smiles": "Fc1cncc(-c2nc3c(c(N[C@@H]4CCc5[nH]c6ccccc6c5C4)n2)OCCN3)c1", "note": "[Example 4, 2-(5-fluoro-3-pyridyl)-N-[(3R)-2,3,4,9-tetrahydro-1H-carbazol-3-yl]-7,8-dihydro-6H-pyrimido[5,4-b][1,4]oxazin-4-amine]", "IC50": 16.2}, {"smiles": "Cc1ncc(-c2nc(N[C@@H]3CCc4[nH]c5ccccc5c4C3)c3c(n2)N(S(C)(=O)=O)CCO3)s1", "note": "[Example 39, 8-methylsulfonyl-2-(2-methylthiazol-5-yl)-N-[(3R)-2,3,4,9-tetrahydro-1H-carbazol-3-yl]-6,7-dihydropyrimido[5,4-b][1,4]oxazin-4-amine]", "IC50": 89.1}, {"smiles": "COc1ncc(F)cc1-c1nc2c(c(N[C@@H]3CCc4[nH]c5ccccc5c4C3)n1)OCCN2", "note": "[Example 65, 2-(5-fluoro-2-methoxy-3-pyridyl)-N-[(3R)-2,3,4,9-tetrahydro-1H-carbazol-3-yl]-7,8-dihydro-6H-pyrimido[5,4-b][1,4]oxazin-4-amine]", "IC50": "> 813"}, {"smiles": "O=c1ccc(-c2nc3c(c(NCCc4c[nH]c5ccccc45)n2)OCCN3)c[nH]1", "note": "[Example 18, 5-[4-[2-(1H-indol-3-yl)ethylamino]-7,8-dihydro-6H-pyrimido[5,4-b][1,4]oxazin-2-yl]-1H-pyridin-2-one]", "IC50": 447}, {"smiles": "O=c1[nH]cc(C(F)(F)F)cc1-c1nc2c(c(NCCc3c[nH]c4ccccc34)n1)OCCN2", "note": "[Example 69, 3-(4-((2-(1H-indol-3-yl)ethyl)amino)-7,8-dihydro-6H-pyrimido[5,4-b][1,4]oxazin-2-yl)-5-(trifluoromethyl)pyridin-2 (1H)-one]", "IC50": 81.3}, {"smiles": "Cc1c[nH]c(=O)c(-c2nc3c(c(NCCc4c[nH]c5ccccc45)n2)OCCN3)c1", "note": "[Example 68, 3-[4-[2-(1H-indol-3-yl)ethylamino]-7,8-dihydro-6H-pyrimido[5,4-b][1,4]oxazin-2-yl]-5-methyl-pyridin-2-ol]", "IC50": 33.1}, {"smiles": "COc1ncc(F)cc1-c1nc2c(c(NCCc3c[nH]c4ccccc34)n1)OCCN2", "note": "[Example 67, 2-(5-fluoro-2-methoxy-3-pyridyl)-N-[2-(1H-indol-3-yl)ethyl]-7,8-dihydro-6H-pyrimido[5,4-b][1,4]oxazin-4-amine]", "IC50": 66.1}, {"smiles": "Oc1ncccc1-c1nc2c(c(NCCc3c[nH]c4cc(OC(F)(F)F)ccc34)n1)OCCN2", "note": "[Example 43, 3-(4-((2-(6-(trifluoromethoxy)-1H-indol-3-yl)ethyl)amino)-7,8-dihydro-6H-pyrimido[5,4-b][1,4]oxazin-2-yl)pyridin-2(1H)-one]", "IC50": 7.08}, {"smiles": "O=c1[nH]cc(Cl)cc1-c1nc2c(c(NCCc3c[nH]c4ccccc34)n1)OCCN2", "note": "[Example 72, 3-(4-((2-(1H-indol-3-yl)ethyl)amino)-7,8-dihydro-6H-pyrimido[5,4-b][1,4]oxazin-2-yl)-5-chloropyridin-2-ol]", "IC50": 14.8}, {"smiles": "CC1(C)COc2c(NCCc3c[nH]c4ccccc34)nc(-c3cncc(F)c3)nc2N1", "note": "[Example 31, 2-(5-fluoro-3-pyridyl)-N-[2-(1H-indol-3-yl)ethyl]-7,7-dimethyl-6,8-dihydropyrimido[5,4-b][1,4]oxazin-4-amine]", "IC50": 16.2}, {"smiles": "COC[C@@H]1COc2c(NCCc3c[nH]c4cc(F)ccc34)nc(-c3ccc[nH]c3=O)nc2N1", "note": "[Example 47, (R)-3-(4-((2-(6-fluoro-1H-indol-3-yl)ethyl)amino)-7-(methoxymethyl)-7,8-dihydro-6H-pyrimido[5,4-b][1,4]oxazin-2-yl)pyridin-2(1H)-one]", "IC50": 3.24}, {"smiles": "COc1ncc(C)cc1-c1nc2c(c(NCCc3c[nH]c4ccccc34)n1)OCCN2", "note": "[Example 23, N-[2-(1H-indol-3-yl)ethyl]-2-(2-methoxy-5-methyl-3-pyridyl)-7,8-dihydro-6H-pyrimido[5,4-b][1,4]oxazin-4-amine]", "IC50": 457}, {"smiles": "Cc1nc(C)c(-c2nc3c(c(NCCc4c[nH]c5ccccc45)n2)OCCN3)s1", "note": "[Example 52, 2-(2,4-dimethylthiazol-5-yl)-N-[2-(1H-indol-3-yl)ethyl]-7,8-dihydro-6H-pyrimido[5,4-b][1,4]oxazin-4-amine]", "IC50": 17.8}, {"smiles": "O=c1[nH]cccc1-c1nc2c(c(NCCc3c(Cl)[nH]c4ccccc34)n1)OCCN2", "note": "[Example 40, 3-(4-((2-(2-chloro-1H-indol-3-yl)ethyl)amino)-7,8-dihydro-6H-pyrimido[5,4-b][1,4]oxazin-2-yl)pyridin-2(1H)-one]", "IC50": 15.1}, {"smiles": "Cc1[nH]c2c(F)cc(F)cc2c1CCNc1nc(-c2ccc[nH]c2=O)nc2c1OCCN2", "note": "[Example 42, 3-(4-((2-(5,7-difluoro-2-methyl-1H-indol-3-yl)ethyl)amino)-7,8-dihydro-6H-pyrimido[5,4-b][1,4]oxazin-2-yl)pyridin-2-ol]", "IC50": 209}, {"smiles": "Cc1ncc(-c2nc3c(c(NCCc4c[nH]c5ccccc45)n2)OCCN3)cc1F", "note": "[Example 16, 2-(5-fluoro-6-methyl-3-pyridyl)-N-[2-(1H-indol-3-yl)ethyl]-7,8-dihydro-6H-pyrimido[5,4-b][1,4]oxazin-4-amine]", "IC50": 33.1}, {"smiles": "Cc1ncc(-c2nc3c(c(N[C@@H]4CCc5[nH]c6ccccc6c5C4)n2)OCCN3)s1", "note": "[Example 51, 2-(2-methylthiazol-5-yl)-N-[(3R)-2,3,4,9-tetrahydro-1H-carbazol-3-yl]-7,8-dihydro-6H-pyrimido[5,4-b][1,4]oxazin-4-amine]", "IC50": 204}, {"smiles": "Cc1ccc(-c2nc3c(c(NCCc4c[nH]c5ccccc45)n2)OCCN3)cn1", "note": "[Example 15, N-[2-(1H-indol-3-yl)ethyl]-2-(6-methyl-3-pyridyl)-7,8-dihydro-6H-pyrimido[5,4-b][1,4]oxazin-4-amine]", "IC50": 89.1}, {"smiles": "Cn1cc(-c2nc3c(c(NCCc4c[nH]c5ccccc45)n2)OCCN3)ccc1=O", "note": "[Example 58, 5-[4-[2-(1H-indol-3-yl)ethylamino]-7,8-dihydro-6H-pyrimido[5,4-b][1,4]oxazin-2-yl]-1-methyl-pyridin-2-one]", "IC50": 347}, {"smiles": "Cc1[nH]c2c(F)cccc2c1CCNc1nc(-c2ccc[nH]c2=O)nc2c1OCCN2", "note": "[Example 41, 3-[4-[2-(7-fluoro-2-methyl-1H-indol-3-yl)ethylamino]-7,8-dihydro-6H-pyrimido[5,4-b][1,4]oxazin-2-yl]-1H-pyridin-2-one]", "IC50": 19.5}]}]}
